Experimental data published in patent publication US20050026235A1 (priority 2003, published 2005).

What was measured:
PLA2 = PLA2 (Apis mellifera, UniProt P00630); conditions: pH 8
[1] = target: Clostridium perfringens PLC (Clostridium perfringens, UniProt P0C216)
[2] = literature values (Cevc 1993; Adrian et al. 1992); cited from earlier work
PLA2 from bee venom = PLA2 from bee venom (Apis mellifera, UniProt P00630)
Chain of PLA2 from bee venom (P00630 34-167 limits assumed): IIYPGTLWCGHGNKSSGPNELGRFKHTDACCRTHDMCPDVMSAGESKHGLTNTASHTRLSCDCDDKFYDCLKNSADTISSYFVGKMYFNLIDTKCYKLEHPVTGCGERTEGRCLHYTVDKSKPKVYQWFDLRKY

Chain of PLA2 (P00630 34-167 limits assumed): as above
Chain of Clostridium perfringens PLC (P0C216 29-398 limits assumed): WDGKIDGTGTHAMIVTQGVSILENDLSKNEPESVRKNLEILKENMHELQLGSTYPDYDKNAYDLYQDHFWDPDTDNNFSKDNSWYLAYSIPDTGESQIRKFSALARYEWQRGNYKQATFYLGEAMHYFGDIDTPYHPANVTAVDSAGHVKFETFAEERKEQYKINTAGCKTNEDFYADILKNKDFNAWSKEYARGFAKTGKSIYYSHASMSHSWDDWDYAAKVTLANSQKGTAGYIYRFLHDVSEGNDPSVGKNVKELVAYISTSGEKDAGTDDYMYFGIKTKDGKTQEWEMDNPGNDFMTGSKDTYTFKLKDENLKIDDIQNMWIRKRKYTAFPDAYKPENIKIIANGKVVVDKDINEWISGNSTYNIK

In the case of “1,2-dimyristoyl-sn-glycero-3-phosphoethanolamine-N-(Oregon Green 500, 5-isomer) [compound 84]”, the “time until all substrate converted to polar product” value (PLA2) is reported as “about 30 min”.

For “1,2-dioleoyl-sn-glycero-3-phosphoethanolamine-N-(Oregon Green® 488, 5-isomer) [compound 60]”, the cleavage activity [1] was “no activity was observed”.

For `CCCCCCCCCCCCCC(=O)OC[C@H](COP(=O)([O-])OCC[N+](C)(C)C)OC(=O)CCCCCCCCCCCCC` [DMPC], the CMC [2] is given as “about 4 nM”.

In the case of `CCCCCCCCCCCCCC(=O)OC[C@H](COP(=O)(O)OC[C@H](N)C(=O)O)OC(=O)CCCCCCCCCCCCC` [DMPS], the CMC [2] is listed as “about 60 nM”.

`CCCCCCCCCCCCCCCCOCC(COCC(F)(F)F)OP(=O)(O)OC` (centres unmarked) [inhibitor 122] showed an IC50 (PLA2 from bee venom) of ~2 µM.
